Data set [1] deals with Leptosphaeria nodorum. Put plainly: Leptosphaeria nodorum test (wheat)/protective. It is filed as in vivo. The following applies: Parastagonospora nodorum, 240 h, protective spray, active compound concentration 1000 ppm, evaluation 10 days after inoculation, read-out: efficacy. The method, then: Leptosphaeria Nodorum Test (Wheat)/Protective [table] […] After the spray coating has dried on, the plants are sprayed with a spore suspension of Leptosphaeria nodorum. The plants remain in an incubation cabin at 20° C. and 100% relative atmospheric humidity for 48 hours. The plants are placed in a greenhouse at a temperature of about 20° C. and a relative atmospheric humidity of 80%.

Data set [2] is described as follows: logP determination by retention times (calibration with alkan-2-ones).
For data set [3], the system named is Fusarium graminearum. The data set can be described thus: whole plant or invertebrate. It is filed as in vivo. Conditions: in Hordeum vulgare, 96 h, read-out: efficacy.
Data set [4] deals with Phytophthora infestans. The data set can be described thus: whole plant or invertebrate. It is filed as in vivo. The following applies: in Solanum lycopersicum, 168 h, read-out: efficacy.
Setting [5] is: logP, * HPLC reversed-phase C18, 40° C., mobile phase 0.1% aqueous formic acid and acetonitrile, linear gradient 10% to 95% acetonitrile.

SMILES strings stand for the structures. Where two headings read alike, the source gives them in different places.

Among the data in patent publication US20090030024A1, “THIAZOLES AS FUNGICIDES” (priority 2005, published 2009) are pest or weed control and chromatographic logP values, retold here.

For `CC(=O)c1cccc(Nc2nccc(-c3sc(C4CC4)nc3C)n2)c1` [Example 7, 1-(3-{[4-(2-cyclopropyl-4-methyl-1,3-thiazol-5-yl)pyrimidin-2-yl]amino}phenyl)ethanone], the pest or weed control at 1000 ppm in data set [1] was at least 70%. In addition, the chromatographic logP (usually a lipophilicity value derived from retention on a column) in data set [2] came out at 2.88.

`CCc1nc(C)c(-c2ccnc(Nc3cccc(C(C)=O)c3)n2)s1` [Example 9, 1-(3-{[4-(2-ethyl-4-methyl-1,3-thiazol-5-yl)pyrimidin-2-yl]amino}phenyl)ethanone]: the pest or weed control at 1000 ppm in data set [3] was at least 70%. For the same compound, in data set [2], the chromatographic logP was found to be 2.7.

Regarding `Cc1nc(C)c(-c2ccnc(Nc3ccc(N(C)C)c(Cl)c3)n2)s1` [Example 62, 2-chloro-N4-[4-(2,4-dimethyl-1,3-thiazol-5-yl)pyrimidin-2-yl]-N1,N1-dimethylbenzene-1,4-diamine], the pest or weed control at 1000 ppm in data set [1] is at least 70%. Further, the chromatographic logP in data set [2] came out at 2.06.

For `CCc1nc(C)c(-c2ccnc(Nc3ccc(NC(=O)OCCOC)cc3)n2)s1` [Example 73, 2-methoxyethyl-(4-{[4-(2-ethyl-4-methyl-1,3-thiazol-5-yl)pyrimidin-2-yl]amino}phenyl)carbamate], the pest or weed control at 500 ppm in data set [4] is at least 70%. In data set [1], the pest or weed control at 1000 ppm was at least 70%. For the same compound, the chromatographic logP in data set [2] worked out at 2.36.

With `Cc1nc(C(C)C)sc1-c1ccnc(Nc2cccc(O)c2)n1` [Example 151, 3-{[4-(2-isopropyl-4-methyl-1,3-thiazol-5-yl)pyrimidin-2-yl]amino}phenol], the pest or weed control at 1000 ppm in data set [3] and in data set [1] was at least 70% in each case. For the same compound, the chromatographic logP in data set [2] turned out to be 2.42.

In the case of `COc1cc(Nc2nccc(-c3sc(C)nc3C)n2)cc(OC)c1OC` [Example 182, 4-(2,4-dimethyl-1,3-thiazol-5-yl)-N-(3,4,5-trimethoxyphenyl)pyrimidine-2-amine], the pest or weed control at 500 ppm in data set [4] was at least 70%. Moreover, the pest or weed control at 1000 ppm in data set [3] and in data set [1] was at least 70% in each case. This compound showed a chromatographic logP in data set [2] of 2.1.

For `Cc1nc(C)c(-c2ccnc(Nc3ccccc3)n2)s1` [Example 190, 4-(2,4-dimethyl-1,3-thiazol-5-yl)-N-phenylpyrimidine-2-amine], the pest or weed control at 1000 ppm in data set [3] and in data set [1] was at least 70% throughout. The chromatographic logP in data set [2] stood at 2.4.

As to `COc1cc(Nc2nccc(-c3sc(N)nc3C)n2)cc(OC)c1OC` [Example 201, 4-(2-amino-4-methyl-1,3-thiazol-5-yl)-N-(3,4,5-trimethoxyphenyl)pyrimidine-2-amine], the pest or weed control at 500 ppm in data set [4] was at least 70%. In data set [2], the chromatographic logP came to 1.51.

With `COc1ccc(Nc2nccc(-c3sc(N)nc3C)n2)cc1Cl` [Example 203, 4-(2-amino-4-methyl-1,3-thiazol-5-yl)-N-(3-chloro-4-methoxyphenyl)pyrimidine-2-amine], the pest or weed control at 500 ppm in data set [4] is at least 70%. Besides, the chromatographic logP in data set [2] was 1.63.

For the compound `Cc1nc(N)sc1-c1ccnc(Nc2ccccc2)n1` [Example 210, 4-(2-amino-4-methyl-1,3-thiazol-5-yl)-N-phenylpyrimidine-2-amine], in data set [4], the pest or weed control at 500 ppm is at least 70%. In data set [2], the chromatographic logP is 1.51.

With `COc1cc(Nc2nccc(-c3sc(C4CC4)nc3C)n2)cc(OC)c1OC` [Example 222, 4-(2-cyclopropyl-4-methyl-1,3-thiazol-5-yl)-N-(3,4,5-trimethoxyphenyl)pyrimidine-2-amine], the pest or weed control at 1000 ppm in data set [3] is at least 70%. Moreover, the chromatographic logP in data set [2] is 2.77.

As to `CCc1nc(C)c(-c2ccnc(Nc3cc(OC)c(OC)c(OC)c3)n2)s1` [Example 235, 4-(2-ethyl-4-methyl-1,3-thiazol-5-yl)-N-(3,4,5-trimethoxyphenyl)pyrimidine-2-amine], the pest or weed control at 500 ppm in data set [4] was at least 70%. Further, the pest or weed control at 1000 ppm in data set [3] was at least 70%. In data set [2], this compound displayed a chromatographic logP of 2.61.

As to `CCc1nc(C)c(-c2ccnc(Nc3ccc(F)cc3)n2)s1` [Example 239, 4-(2-ethyl-4-methyl-1,3-thiazol-5-yl)-N-(4-fluorophenyl)pyrimidine-2-amine], the pest or weed control at 500 ppm in data set [4] was at least 70%. The chromatographic logP in data set [2] was 3.1.

As for `CCc1nc(C)c(-c2ccnc(Nc3ccc(OC)nc3)n2)s1` [Example 240, 4-(2-ethyl-4-methyl-1,3-thiazol-5-yl)-N-(6-methoxypyridin-3-yl)pyrimidine-2-amine], the pest or weed control at 1000 ppm in data set [3] and in data set [1] was at least 70% each time. Moreover, the chromatographic logP in data set [2] worked out at 2.33.

Consider `CCc1nc(C)c(-c2ccnc(Nc3ccccc3)n2)s1` [Example 243, 4-(2-ethyl-4-methyl-1,3-thiazol-5-yl)-N-phenylpyrimidine-2-amine], for which the pest or weed control at 500 ppm in data set [4] is at least 70%. Besides, the pest or weed control at 1000 ppm in data set [3] was at least 70%. This compound had a chromatographic logP in data set [2] of 3.07.

Regarding `COc1cc(Nc2nccc(-c3sc(C(C)C)nc3C)n2)cc(OC)c1OC` [Example 244, 4-(2-isopropyl-4-methyl-1,3-thiazol-5-yl)-N-(3,4,5-trimethoxyphenyl)pyrimidine-2-amine], the pest or weed control at 1000 ppm in data set [3] and in data set [1] was at least 70% in each case. In data set [2], this compound returned a chromatographic logP of 2.99.

For the compound `COc1ccc(Nc2nccc(-c3sc(C(C)C)nc3C)n2)cn1` [Example 247, 4-(2-isopropyl-4-methyl-1,3-thiazol-5-yl)-N-(6-methoxypyridin-3-yl)pyrimidine-2-amine], the pest or weed control at 500 ppm in data set [4] is at least 70%. Also, the pest or weed control at 1000 ppm in data set [3] and in data set [1] was at least 70% in each case. The compound also registered a chromatographic logP in data set [2] of 2.76.

As to `Cc1nc(C(C)C)sc1-c1ccnc(Nc2ccccc2)n1` [Example 251, 4-(2-isopropyl-4-methyl-1,3-thiazol-5-yl)-N-phenylpyrimidine-2-amine], the pest or weed control at 500 ppm in data set [4] was at least 70%. For the same compound, the pest or weed control at 1000 ppm in data set [3] and in data set [1] was at least 70% throughout. Besides, the chromatographic logP in data set [2] was determined as 3.55.

For `Cc1nc(C)c(-c2ccnc(Nc3ccc(O)cc3)n2)s1` [Example 321, 4-{[4-(2,4-dimethyl-1,3-thiazol-5-yl)pyrimidin-2-yl]amino}phenol], the pest or weed control at 500 ppm in data set [4] was at least 70%. Further, the chromatographic logP in data set [2] was found to be 1.62.

Take `Cc1nc(C2CC2)sc1-c1ccnc(Nc2ccc(O)cc2)n1` [Example 324, 4-{[4-(2-cyclopropyl-4-methyl-1,3-thiazol-5-yl)pyrimidin-2-yl]amino}phenol]: the pest or weed control at 500 ppm in data set [4] was at least 70%. The compound further registered a chromatographic logP in data set [2] of 2.01.

On to `CCc1nc(C)c(-c2ccnc(Nc3ccc(O)cc3)n2)s1` [Example 327, 4-{[4-(2-ethyl-4-methyl-1,3-thiazol-5-yl)pyrimidin-2-yl]amino}phenol], for which the pest or weed control at 500 ppm in data set [4] is at least 70%. Moreover, in data set [2], the chromatographic logP is 1.88.

Regarding `Cc1nc(C(C)C)sc1-c1ccnc(Nc2ccc(O)cc2)n1` [Example 329, 4-{[4-(2-isopropyl-4-methyl-1,3-thiazol-5-yl)pyrimidin-2-yl]amino}phenol], in data set [4], the pest or weed control at 500 ppm was at least 70%. The chromatographic logP in data set [2] was 2.18.

As for `CCOC(=O)c1cccc(Nc2nccc(-c3sc(C(C)C)nc3C)n2)c1` [Example 375, ethyl-3-{[4-(2-isopropyl-4-methyl-1,3-thiazol-5-yl)pyrimidin-2-yl]amino}benzoate], in data set [3], the pest or weed control at 1000 ppm is at least 70%. Moreover, the chromatographic logP in data set [2] amounted to 3.83.

For the compound `CCc1nc(C)c(-c2ccnc(Nc3ccc(NC(C)=O)cc3)n2)s1` [Example 460, N-(4-{[4-(2-ethyl-4-methyl-1,3-thiazol-5-yl)pyrimidin-2-yl]amino}phenyl)acetamide], the pest or weed control at 500 ppm in data set [4] was at least 70%. The chromatographic logP in data set [2] (setting [5]) came out at 1.88.

Take `CC(=O)Nc1ccc(Nc2nccc(-c3sc(C(C)C)nc3C)n2)cc1` [Example 461, N-(4-{[4-(2-isopropyl-4-methyl-1,3-thiazol-5-yl)pyrimidin-2-yl]amino}phenyl)acetamide]: the pest or weed control at 1000 ppm in data set [3] and in data set [1] was at least 70% in each case. This compound yielded a chromatographic logP in data set [2] (setting [5]) of 2.15.

Take `Cc1nc(N)sc1-c1ccnc(Nc2ccc(CNC(=O)OC(C)(C)C)cc2)n1` [Example 628, tert-butyl-(4-{[4-(2-amino-4-methyl-1,3-thiazol-5-yl)pyrimidin-2-yl]amino}benzyl)carbamate]: the pest or weed control at 500 ppm in data set [4] is at least 70%. Besides, the chromatographic logP in data set [2] (setting [5]) was 1.86.

For `Cc1nc(C2CC2)sc1-c1ccnc(Nc2ccc(CNC(=O)OC(C)(C)C)cc2)n1` [Example 630, tert-butyl-(4-{[4-(2-cyclopropyl-4-methyl-1,3-thiazol-5-yl)pyrimidin-2-yl]amino}benzyl)carbamate], the pest or weed control at 500 ppm in data set [4] is at least 70%. In data set [2] (setting [5]), this compound showed a chromatographic logP of 3.46.

As for `Cc1nc(C)c(-c2ccnc(Nc3ccc(F)cc3F)n2)s1` [Example 759, N-(2,4-difluorophenyl)-4-(2,4-dimethyl-1,3-thiazol-5-yl)pyrimidine-2-amine], in data set [1], the pest or weed control at 1000 ppm is at least 70%. This compound had a chromatographic logP in data set [2] (setting [5]) of 2.8.
